Source: publication PMC8837603, “Lapcin, a potent dual topoisomerase I/II inhibitor discovered by soil metagenome guided total chemical synthesis” (Nature Communications, 2022)

How the values were obtained:
HCC1806 cells = experiment: cells; assay type: cell-based, human; conditions: breast cancer; MTT, 48 h, 37 °C; RPMI-1640 + 10% FBS; 2,500 cells/well; absorbance 570 nm; n = 3 biologically independent
Description: (§1) An MTT (2-(4,5-dimethylthiazol-2-yl)−2,5-diphenyltetrazolium bromide) assay was used to determine the cytotoxicity of lapcin towards diverse cancer cell lines. Lapcin was dissolved in DMSO to make a 3.2 mg/mL working solution. For each cancer line detailed in Supplementary Table 5, cells at 80-90% confluency were counted and seeded in 96-well, flat bottom microplates and incubated at 37 °C with a 5% CO2 atmosphere. Outer wells were unused to avoid edge effects. After adhering for 24 h, the medium was sterilely aspirated and replaced with 100 µL of fresh medium containing lapcin or a control compound serially diluted at concentrations ranging from 8,000 to 0.00382 ng/mL. After 48 h (37 °C, 5% CO2), the medium was carefully removed and 110 µL of freshly prepared MTT solution (10 µL of 5 mg/mL MTT in PBS (pH 7.4) premixed with 100 µL of complete medium) was added to each well. After 3 h at 37 °C with 5% CO2, 100 µL of solubilization solution (40% DMF, 16% SDS and 2% acetic acid in H2O) was added to each well and precipitated formazan crystals were allowed to dissolve for 4 h. The absorbance of each well was then measured at 570 nm using a Tecan microplate reader.

A549 cells = experiment: cells; assay type: cell-based, human; conditions: lung cancer; MTT, 48 h, 37 °C; DMEM + 10% FBS + NEAA; 2,500 cells/well; absorbance 570 nm; n = 3 biologically independent
Description: as §1

Hela (Cervical) cells = experiment: cells; assay type: cell-based, human; conditions: cervical cancer; MTT, 48 h, 37 °C; DMEM + 10% FBS; 2,500 cells/well; absorbance 570 nm; n = 3 biologically independent
Description: as §1

SW480 cells = experiment: cells; assay type: cell-based, human; conditions: colon cancer; MTT, 48 h, 37 °C; DMEM + 10% FBS; 10,000 cells/well; absorbance 570 nm; n = 3 biologically independent
Description: as §1

[1] = test system: Candida albicans ATCC76485; experiment: MIC assay, Candida albicans; assay type: cell-based; conditions: YPD, 16 h, n = 2
Description: (§2) Lapcin was tested for antimicrobial activity against the bacteria and fungi shown in Supplementary Table 4. […] Lapcin was dissolved in sterile DMSO to make a 3.2 mg/mL working solution. Lapcin was diluted across 96-well plates using a 2-fold serial dilution method to give a concentration range of 64 to 0.06 µg/mL in 50 µL of LB broth. A single colony of each test organism was grown in either 5 mL LB (bacteria) or YPD (fungi) medium overnight at 37 °C or 30 °C, respectively. Saturated overnight cultures were diluted 5,000-fold, and then 50 µL of dilute cells were transferred into each well of the assay plates. Finally, each well contains a total volume of 100 µL.

Topo II = experiment: Enzyme concentration dependence, Topo II activity assay; assay type: biochemical; conditions: unlike known DNA intercalators; Supplementary Fig. 38
[2] = test system: Escherichia coli ATCC25922; experiment: MIC assay, Escherichia coli; assay type: cell-based; conditions: LB, 16 h, 37 °C, n = 2
Description: as §2

[3] = test system: Wheat germ Topoisomerase I; experiment: DNA intercalator assay / enzyme concentration dependence, Topo I; assay type: biochemical; conditions: unlike known DNA intercalators; supercoil pBR322, 30 min, 37 °C; two independent times
Excerpt: DNA intercalator assay: A commercial DNA unwinding assay kit (Inspiralis, UK) was used in this study with a slight modification. Ethidium bromide was used as intercalator positive control. The assay contains two steps: the first step is used to determine the minimum concentration of compounds that will inhibit the enzyme activity; the second step is used to determine whether compounds act as intercalator or inhibitor. Ethidium bromide was used as the intercalator positive control and supercoil pBR322 was used as the substrate. The assay mixture was set up on the ice. Briefly, the master mixture was prepared by adding 3 µL of […] wheat germ topoisomerase I assay buffer, 0.5 µL of 1 µg/µL supercoil pBR322, 1.5 uL serial diluted compounds (dissolved in DMSO). H2O was added to a final volume of 29 µL. Finally, 1 µL of 2 U/µL Wheat germ Topoisomerase I was added to the reaction mixture. The reaction was incubated for 30 minutes at 37℃. The reaction was stopped by added 20 µL of H2O, and 50 µL of butanol (water-saturated). The mixture was vortexed vigorously and centrifuged for 1 minute. The lower, aqueous layer was removed and added into a new tubes containing 50 µL STEB buffer and 40 µL of Chloroform/isoamyl alcohol (v:v, 24:1). The mixture was vortexed vigorously for 10 secs and centrifuge for 2 minutes. […]

[4] = test system: human topoisomerase II alpha; experiment: Topoisomerase II DNA cleavage assay; assay type: biochemical; conditions: supercoil pBR322, ATP, 30 min, 37 °C; linear DNA; two independent times
Description: Topoisomerase I/II cleavage assay: A commercial Human topoisomerase cleavage assay kit (Inspiralis, UK) was used in this study with a slight modification. Camptothecin (Sigma, USA) and Etoposide (Sigma, USA) were used as the positive control for topoisomerase I cleavage assay and topoisomerase II cleavage assay, respectively. The assay was performed according to the manufacture’s protocol. Briefly, 29 µL of the master mixture was prepared by adding 3 µL of 10 x assay buffer, 1 µL of 1 µg/µL supercoil pBR322, 1 µL of 30 mM ATP (only used in topoisomerase II cleavage assay), 1.5 µL serial diluted compounds (dissolved in DMSO) and H2O. Finally, 1 µL of 10 U/µL human topoisomerase I/II alpha was added to the reaction mixture. The reaction was incubated for 30 minutes at 37℃. After incubation, 3 µL of 2% (w/v) SDS and 1.5 µL of 10 mg/mL proteinase K was added. The reaction was mixed briefly and incubated for another 30 minutes at 37 ℃. The reaction was stopped by added 10 µL of H2O, 40 µL of STEB stop buffer and 40 µL of Chloroform/isoamyl alcohol (v:v, 24:1). The mixture was vortexed vigorously for 10 secs and centrifuged for 2 minutes. 20 µL of aqueous phase was loaded onto 1% (w/v) agarose gel and separated at 80 V for 2 hours in 0.5% TBE buffer. […]

SMILES: CCCCCCCCCCCC(O)CC(=O)N[C@@H](C)C(=O)N[C@@H](CO)C(=O)N[C@@H](C)C(=O)Nc1ccc(-c2nc(-c3nc(C(=O)N[C@@H](CC(N)=O)C(=O)Nc4ccc(C(=O)Nc5ccc(C(=O)Nc6ccc(C(=O)O)cc6)c(O)c5OC(C)C)cc4)cs3)cs2)cc1 (stereo partly drawn) [Lapcin, 4-(4-(4-((2S)-4-amino-2-(2'-(4-((2S)-2-((2S)-3-hydroxy-2-((2S)-2-(3-hydroxytetradecanamido)propanamido)propanamido)propanamido)phenyl)-[2,4'-bithiazole]-4-carboxamido)-4-oxobutanamido)benzamido)-2-hydroxy-3-isopropoxybenzamido)benzoic acid]
- IC50 (HCC1806 cells): 212 nM
- IC50 (A549 cells): 2.66 nM
- IC50 (Hela (Cervical) cells): 0.986 nM
- IC50 (SW480 cells): 37.2 nM
- MIC, Candida albicans [1]: > 32 µg/mL
- dependence of activity on enzyme concentration, Topo II (Topo II): strong dependence on enzyme concentration
- MIC, Escherichia coli [2]: > 32 µg/mL
- dependence of activity on enzyme concentration, Topo I [3]: strong dependence on enzyme concentration
- accumulation of cleavage product, Topo II [4]: did not observe the accumulation of a cleavage product
